Test results published in ChEMBL document CHEMBL2074457, “LST-2, a human liver-specific organic anion transporter, determines methotrexate sensitivity in gastrointestinal cancers” (Gastroenterology, 2001).

Assays:
[1] = target: T1, Solute carrier organic anion transporter family member 1B3 (Homo sapiens, UniProt Q9NPD5); assay: (§1) TP_TRANSPORTER: uptake in Xenopus laevis oocytes; type: functional, cell-based, Oocyte; conditions: for Activity: oocyte; for Km: Xenopus laevis oocytes expressing SLCO1B3 (OATP1B3)
T1 sequence (Q9NPD5 whole entry): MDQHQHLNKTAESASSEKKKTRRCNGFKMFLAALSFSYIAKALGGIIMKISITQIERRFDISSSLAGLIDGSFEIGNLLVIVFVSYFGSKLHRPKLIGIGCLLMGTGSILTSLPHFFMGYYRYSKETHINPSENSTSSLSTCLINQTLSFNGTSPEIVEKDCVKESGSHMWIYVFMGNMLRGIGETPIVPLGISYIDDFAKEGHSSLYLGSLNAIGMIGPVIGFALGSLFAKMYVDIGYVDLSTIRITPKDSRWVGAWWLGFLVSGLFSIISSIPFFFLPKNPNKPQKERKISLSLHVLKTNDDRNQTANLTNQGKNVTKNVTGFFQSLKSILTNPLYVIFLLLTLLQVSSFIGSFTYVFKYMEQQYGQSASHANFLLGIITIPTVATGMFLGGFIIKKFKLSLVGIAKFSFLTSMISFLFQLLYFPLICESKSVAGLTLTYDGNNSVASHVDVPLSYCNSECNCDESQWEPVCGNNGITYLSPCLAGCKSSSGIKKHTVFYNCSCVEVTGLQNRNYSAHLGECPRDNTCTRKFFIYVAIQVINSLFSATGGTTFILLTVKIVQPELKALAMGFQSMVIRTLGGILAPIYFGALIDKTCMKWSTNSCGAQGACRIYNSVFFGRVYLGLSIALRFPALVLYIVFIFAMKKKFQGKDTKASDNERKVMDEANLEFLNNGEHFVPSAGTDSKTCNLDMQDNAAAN

[2] = target: T2, Solute carrier organic anion transporter family member 1B1 (Homo sapiens, UniProt Q9Y6L6); assay: as §1; type: functional, cell-based; conditions: oocyte
T2 sequence (Q9Y6L6 whole entry): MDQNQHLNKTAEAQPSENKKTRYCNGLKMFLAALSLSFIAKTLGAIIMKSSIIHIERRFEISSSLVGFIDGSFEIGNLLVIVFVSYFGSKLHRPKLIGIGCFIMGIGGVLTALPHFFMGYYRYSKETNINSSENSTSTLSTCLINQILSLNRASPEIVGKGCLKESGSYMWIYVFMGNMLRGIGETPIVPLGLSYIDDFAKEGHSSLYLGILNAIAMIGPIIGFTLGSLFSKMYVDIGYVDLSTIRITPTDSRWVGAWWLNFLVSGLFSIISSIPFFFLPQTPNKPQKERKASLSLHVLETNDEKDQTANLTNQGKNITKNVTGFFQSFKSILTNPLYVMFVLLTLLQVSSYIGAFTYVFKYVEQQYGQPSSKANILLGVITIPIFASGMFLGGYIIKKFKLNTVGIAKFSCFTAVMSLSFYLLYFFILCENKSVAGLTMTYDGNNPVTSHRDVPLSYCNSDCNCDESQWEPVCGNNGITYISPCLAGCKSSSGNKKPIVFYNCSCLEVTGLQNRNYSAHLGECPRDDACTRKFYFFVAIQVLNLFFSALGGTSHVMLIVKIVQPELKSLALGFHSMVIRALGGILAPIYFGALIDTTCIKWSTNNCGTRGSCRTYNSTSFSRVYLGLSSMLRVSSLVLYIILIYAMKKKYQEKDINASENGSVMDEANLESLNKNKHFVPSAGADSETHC

[3] = target: T1, Solute carrier organic anion transporter family member 1B3; assay: TP_TRANSPORTER: inhibition of MTX uptake (MTX: 1 uM, BSP: 100 uM) in Xenopus laevis oocytes; type: functional, cell-based; conditions: oocyte

SMILES	Activity [1]	Km [1]	further results
CC1(C)SSC(C)(C)[C@@H](NC(=O)[C@@H](N)Cc2ccc(O)cc2)C(=O)NCC(=O)N[C@@H](Cc2ccccc2)C(=O)N[C@H]1C(=O)O	is not a substrate [-]		
N[C@@H](Cc1cc(I)c(Oc2ccc(O)c(I)c2)c(I)c1)C(=O)O [LIOTHYRONINE]		6.4 µM	
CN(Cc1cnc2nc(N)nc(N)c2n1)c1ccc(C(=O)N[C@@H](CCC(=O)O)C(=O)O)cc1 [METHOTREXATE]		24.7 µM	Activity [2]: substrate [+]
C[C@]12CC[C@H](OS(=O)(=O)O)CC1=CC[C@@H]1[C@@H]2CC[C@]2(C)C(=O)CC[C@@H]12 [PRASTERONE SULFURIC ACID]	substrate [+]		
O=C1OC(c2ccc(O)c(S(=O)(=O)[O-])c2)(c2ccc(O)c(S(=O)(=O)[O-])c2)c2c(Br)c(Br)c(Br)c(Br)c21.[Na+].[Na+] [SULFOBROMOPHTHALEIN SODIUM]			Activity [3]: inhibitor [+]
